EP0201999A1 (priority 1985, dated 1986)
Marks after values point to notes of the source that are not given here.

Legend:
Assay type in all cases: in vivo
P[…] = conditions: 100 ppm a.i. foliar spray plus root drench approx. 40 ppm ai./dry soil, mostly protectant, applied 1-2 days before inoculation
[…] [1] = Foliar fungal disease test on plants (Example 29), […] on vines; conditions: 100 ppm a.i. foliar spray plus root drench approx. 40 ppm ai./dry soil, mostly protectant, applied 1-2 days before inoculation
Method: (§1) The compounds were tested against a variety of mainly foliar fungal diseases of plants. The techniques employed were as follows.
(§2) For all tests the plants were grown in John Innes Potting Compost (No. 1 or 2) in 4 cm diameter minipots. The test compounds were formulated either by bead milling with aqueous Dispersol T or as a solution in acetone or acetone/ethanol which was diluted to the required concentration immediately before use. The solutions or suspensions (100 ppm ia.) were sprayed on the foliage and applied to the roots of the plant via the soil. The sprays were applied to maximum retention and the root drenches to a final concentration equivalent to approximately 40 ppm ai./dry soil. "TWEEN" 20, to give a final concentration of 0.05%, was added when the sprays were applied to cereals. (a.i. means "active ingredient"). The word "TWEEN" is a Trade Mark.
(§3) Most were protectant tests where the compound was applied to the soil and roots and to the foliage one or two days before the plant was inoculated with the pathogen. The foliar pathogens were applied by spraying as spore suspensions onto the leaves of the test plants.
(§4) After inoculation, the plants were placed in an appropriate environment to allow infection to proceed and then incubated until the disease was ready for assessment. The period between inoculation and assessment varied from four to fourteen days according to the disease and the environment.
(§5) Disease control was recorded using the following grading system : • 4 = no disease • 3 = trace to 5% of disease on untreated plants • 2 = 6-25% of disease on untreated plants • 1 = 26-59% of disease on untreated plants • 0 = 60-100% of disease on untreated plants

PUCCINIA RECONDITA = assay: Foliar fungal disease test on plants (Example 29), Puccinia recondita on wheat; conditions: 100 ppm a.i. foliar spray plus root drench approx. 40 ppm ai./dry soil, mostly protectant, applied 1-2 days before inoculation
Method: as §1, §2, §3, §4, §5

VENTURIA INAEQUALIS = assay: Foliar fungal disease test on plants (Example 29), Venturia inaequalis on apples; conditions: 100 ppm a.i. foliar spray plus root drench approx. 40 ppm ai./dry soil, mostly protectant, applied 1-2 days before inoculation
Method: as §1, §2, §3, §4, §5

CERCOSPORA ARACHIDICOLA = assay: Foliar fungal disease test on plants (Example 29), Cercospora arachidicola on peanuts; conditions: 100 ppm a.i. foliar spray plus root drench approx. 40 ppm ai./dry soil, mostly protectant, applied 1-2 days before inoculation
Method: as §1, §2, §3, §4, §5

[…] [2] = Root drench test against Plasmopara viticola on vines (Example 30); conditions: vines (variety ohanez), 25 ppm, approx. 10 ppm compound/dry soil, inoculated after 2 days, assessed six days later
Method: This Example illustrates the activity of the invention compounds against the disease Plasmopara viticola on vines.
For the test on Plasmopara viticola the vine plants (variety ohanez) were grown in John Innes Potting Compost (No. 1 or 2) in 4 cm diameter minipots. The test compounds were formulated either by bead milling with aqueous Dispersol T or as a solution in acetone or acetone/ ethanol which was diluted to a concentration of 25 ppm of the compound immediately before use. The solutions or suspensions were applied as a root drench to a final concentration equivalent to approximately 10 ppm compound/dry soil. After 2 days the plants were inoculated with the pathogen, and then placed in a humidity cabinet to allow infection to proceed, and the assessment carried out six days later.
The disease grading system was as for Example 29.

[…] [3] = as above; conditions: vines (variety ohanez), test concentration 30 ppm (marked *), inoculated after 2 days, assessed six days later
[4] = test system: Phytophthora infestans lycopersicii; conditions: tomato plants (variety Outdoor Girl); 100 ppm ai.; inoculated after 1 day; 24 hours humidity cabinet, assessed after a further 2 days

C#CCN(CC=C)C(=O)C(C#N)=NOC [Compound 10, 2-cyano-2-methoxyimino-N-(propargyl)-N-allylacetamide]
Disease control P[…] (RICE) (P[…]): 0 (0 = 60-100% of disease on untreated plants)
Disease control […] (VINES) ([…] [1]): 3 (3 = trace to 5% of disease on untreated plants)
Disease control PUCCINIA RECONDITA (WHEAT) (PUCCINIA RECONDITA): 0 (0 = 60-100% of disease on untreated plants)
Disease control VENTURIA INAEQUALIS (APPLES) (VENTURIA INAEQUALIS): 0 (0 = 60-100% of disease on untreated plants)
Disease control CERCOSPORA ARACHIDICOLA (PEANUTS) (CERCOSPORA ARACHIDICOLA): 2 (2 = 6-25% of disease on untreated plants)
Disease control […] (VINES) ([…] [2]): 2 (2 = 6-25% of disease on untreated plants)

CON=C(C#N)C(=O)NC(C#N)c1ccco1 (stereo not drawn) [Compound 63, 2-cyano-2-methoxyimino-N-[(2-furyl)-α-cyano-methyl]-acetamide]
Disease control P[…] (RICE) (P[…]): 0 (0 = 60-100% of disease on untreated plants)
Disease control […] (VINES) ([…] [1]): 4
Disease control PUCCINIA RECONDITA (WHEAT) (PUCCINIA RECONDITA): 2 (2 = 6-25% of disease on untreated plants)
Disease control VENTURIA INAEQUALIS (APPLES) (VENTURIA INAEQUALIS): 0 (0 = 60-100% of disease on untreated plants)
Disease control CERCOSPORA ARACHIDICOLA (PEANUTS) (CERCOSPORA ARACHIDICOLA): 0 (0 = 60-100% of disease on untreated plants)
Disease control […] (VINES) ([…] [2]): 4

CON=C(C#N)C(=O)NCC(I)=CI [Compound 7, 2-cyano-2-methoxyimino-N-2,3-diiodo-allylacetamide]
Disease control […] (VINES) ([…] [3]): 2* (2 = 6-25% of disease on untreated plants)
Disease control P[…] (RICE) (P[…]): 2 (2 = 6-25% of disease on untreated plants)
Disease control […] (VINES) ([…] [1]): 4
Disease control PUCCINIA RECONDITA (WHEAT) (PUCCINIA RECONDITA): 0 (0 = 60-100% of disease on untreated plants)
Disease control VENTURIA INAEQUALIS (APPLES) (VENTURIA INAEQUALIS): 0 (0 = 60-100% of disease on untreated plants)
Disease control CERCOSPORA ARACHIDICOLA (PEANUTS) (CERCOSPORA ARACHIDICOLA): 0 (0 = 60-100% of disease on untreated plants)

CON=C(C#N)C(=O)Nc1nccs1 [Compound 25, 2-cyano-2-methoxyimino-N-2-thiazolylacetamide]
Disease control P[…] (RICE) (P[…]): 0 (0 = 60-100% of disease on untreated plants)
Disease control […] (VINES) ([…] [1]): 4
Disease control Phytophthora infestans (tomatoes) [4]: 2 (2 = 6-25% of disease on untreated plants)
Disease control PUCCINIA RECONDITA (WHEAT) (PUCCINIA RECONDITA): 3 (3 = trace to 5% of disease on untreated plants)
Disease control VENTURIA INAEQUALIS (APPLES) (VENTURIA INAEQUALIS): 2 (2 = 6-25% of disease on untreated plants)
Disease control CERCOSPORA ARACHIDICOLA (PEANUTS) (CERCOSPORA ARACHIDICOLA): 0 (0 = 60-100% of disease on untreated plants)
Disease control […] (VINES) ([…] [2]): 0 (0 = 60-100% of disease on untreated plants)

CON=C(C#N)C(=O)NC(C)C#N (stereo not drawn) [Compound 34, 2-cyano-2-methoxyimino-N-(α-cyanoethyl)-acetamide]
Disease control P[…] (RICE) (P[…]): 0 (0 = 60-100% of disease on untreated plants)
Disease control […] (VINES) ([…] [1]): 4
Disease control Phytophthora infestans (tomatoes) [4]: 3 (3 = trace to 5% of disease on untreated plants)
Disease control PUCCINIA RECONDITA (WHEAT) (PUCCINIA RECONDITA): 4
Disease control VENTURIA INAEQUALIS (APPLES) (VENTURIA INAEQUALIS): 0 (0 = 60-100% of disease on untreated plants)
Disease control CERCOSPORA ARACHIDICOLA (PEANUTS) (CERCOSPORA ARACHIDICOLA): 0 (0 = 60-100% of disease on untreated plants)
Disease control […] (VINES) ([…] [2]): 4

N#CCNC(=O)C(C#N)=NO [Compound 31, 2-cyano-2-oximino-N-(cyanomethyl)-acetamide]
Disease control P[…] (RICE) (P[…]): 2 (2 = 6-25% of disease on untreated plants)
Disease control […] (VINES) ([…] [1]): 0 (0 = 60-100% of disease on untreated plants)
Disease control PUCCINIA RECONDITA (WHEAT) (PUCCINIA RECONDITA): 0 (0 = 60-100% of disease on untreated plants)
Disease control VENTURIA INAEQUALIS (APPLES) (VENTURIA INAEQUALIS): 0 (0 = 60-100% of disease on untreated plants)
Disease control CERCOSPORA ARACHIDICOLA (PEANUTS) (CERCOSPORA ARACHIDICOLA): 0 (0 = 60-100% of disease on untreated plants)

CON=C(C#N)C(=O)NCC#N [Compound 20, 2-cyano-2-methoxyimino-N-(cyanomethyl)-acetamide]
Disease control P[…] (RICE) (P[…]): 1 (1 = 26-59% of disease on untreated plants)
Disease control […] (VINES) ([…] [1]): 4
Disease control Phytophthora infestans (tomatoes) [4]: 2 (2 = 6-25% of disease on untreated plants)
Disease control PUCCINIA RECONDITA (WHEAT) (PUCCINIA RECONDITA): 3 (3 = trace to 5% of disease on untreated plants)
Disease control VENTURIA INAEQUALIS (APPLES) (VENTURIA INAEQUALIS): 3 (3 = trace to 5% of disease on untreated plants)
Disease control CERCOSPORA ARACHIDICOLA (PEANUTS) (CERCOSPORA ARACHIDICOLA): 2 (2 = 6-25% of disease on untreated plants)
Disease control […] (VINES) ([…] [2]): 4

CON=C(C#N)C(=O)NCC(=O)OC [Compound 24, methoxycarbonylmethyl-(2-cyano-2-methoxyimino)-acetamide]
Disease control P[…] (RICE) (P[…]): 0 (0 = 60-100% of disease on untreated plants)
Disease control […] (VINES) ([…] [1]): 4
Disease control PUCCINIA RECONDITA (WHEAT) (PUCCINIA RECONDITA): 1 (1 = 26-59% of disease on untreated plants)
Disease control VENTURIA INAEQUALIS (APPLES) (VENTURIA INAEQUALIS): 0 (0 = 60-100% of disease on untreated plants)
Disease control CERCOSPORA ARACHIDICOLA (PEANUTS) (CERCOSPORA ARACHIDICOLA): 2 (2 = 6-25% of disease on untreated plants)
Disease control […] (VINES) ([…] [2]): 0 (0 = 60-100% of disease on untreated plants)

C#CCN(CC#C)C(=O)C(C#N)=NOC [Compound 9, 2-cyano-2-methoxyimino-N,N-dipropargyl-acetamide]
Disease control […] (VINES) ([…] [3]): 3* (3 = trace to 5% of disease on untreated plants)
Disease control P[…] (RICE) (P[…]): 2 (2 = 6-25% of disease on untreated plants)
Disease control […] (VINES) ([…] [1]): 4
Disease control PUCCINIA RECONDITA (WHEAT) (PUCCINIA RECONDITA): 2 (2 = 6-25% of disease on untreated plants)
Disease control VENTURIA INAEQUALIS (APPLES) (VENTURIA INAEQUALIS): 0 (0 = 60-100% of disease on untreated plants)
Disease control CERCOSPORA ARACHIDICOLA (PEANUTS) (CERCOSPORA ARACHIDICOLA): 0 (0 = 60-100% of disease on untreated plants)

CON=C(C#N)C(=O)NCC(N)=S [Compound 54, 2-cyano-2-methoxyimino-N-(thio-carbamoylmethyl)-acetamide]
Disease control P[…] (RICE) (P[…]): 0 (0 = 60-100% of disease on untreated plants)
Disease control […] (VINES) ([…] [1]): 4
Disease control Phytophthora infestans (tomatoes) [4]: 3 (3 = trace to 5% of disease on untreated plants)
Disease control PUCCINIA RECONDITA (WHEAT) (PUCCINIA RECONDITA): 3 (3 = trace to 5% of disease on untreated plants)
Disease control VENTURIA INAEQUALIS (APPLES) (VENTURIA INAEQUALIS): 0 (0 = 60-100% of disease on untreated plants)
Disease control CERCOSPORA ARACHIDICOLA (PEANUTS) (CERCOSPORA ARACHIDICOLA): 3 (3 = trace to 5% of disease on untreated plants)
Disease control […] (VINES) ([…] [2]): 4

C#CCNC(=O)C(C#N)=NOC [Compound 1, 2-cyano-2-methoxyimino-N-propargylacetamide]
Disease control P[…] (RICE) (P[…]): 3 (3 = trace to 5% of disease on untreated plants)
Disease control […] (VINES) ([…] [1]): 4
Disease control PUCCINIA RECONDITA (WHEAT) (PUCCINIA RECONDITA): 4
Disease control VENTURIA INAEQUALIS (APPLES) (VENTURIA INAEQUALIS): 2 (2 = 6-25% of disease on untreated plants)
Disease control CERCOSPORA ARACHIDICOLA (PEANUTS) (CERCOSPORA ARACHIDICOLA): 2 (2 = 6-25% of disease on untreated plants)
Disease control […] (VINES) ([…] [2]): 4

CCON=C(C#N)C(=O)NCC#N [Compound 22, 2-cyano-2-ethoxyimino-N-(cyanomethyl)-acetamide]
Disease control P[…] (RICE) (P[…]): 3 (3 = trace to 5% of disease on untreated plants)
Disease control […] (VINES) ([…] [1]): 4
Disease control PUCCINIA RECONDITA (WHEAT) (PUCCINIA RECONDITA): 3 (3 = trace to 5% of disease on untreated plants)
Disease control VENTURIA INAEQUALIS (APPLES) (VENTURIA INAEQUALIS): 4
Disease control CERCOSPORA ARACHIDICOLA (PEANUTS) (CERCOSPORA ARACHIDICOLA): 3 (3 = trace to 5% of disease on untreated plants)
Disease control […] (VINES) ([…] [2]): 4
